ChEMBL document CHEMBL3407492, “BMS-871: a novel orally active pan-Notch inhibitor as an anticancer agent” (Bioorg Med Chem Lett, 2015)
pIC50: −log10 of the molar value.

Experiments:
[1] = tested on: TALL-1; experiment: Anticancer activity against human TALL-1 cells assessed as cell number by coulter channelyzer; format: functional, cell-based
[2] = Metabolic stability in human liver microsomes assessed as fraction of 0.5 uM parent compound remaining after 10 mins; format: ADME; conditions: read-out: Stability
[3] = Metabolic stability in mouse liver microsomes assessed as fraction of 0.5 uM parent compound remaining after 10 mins; format: ADME; conditions: read-out: Stability
[4] = tested on: TALL-1; experiment: In vivo antitumor activity against human TALL-1 cells xenograft model assessed as tumor growth inhibition at 6 mg/kg, po qd for 10 days on - 2 days off - 5 days on; format: functional; conditions: read-out: TGI
[5] = tested on: TALL-1; experiment: In vivo antitumor activity against human TALL-1 cells xenograft model assessed as tumor growth inhibition at 24 mg/kg, po qd for 10 days on - 2 days off - 5 days on; format: functional; conditions: read-out: TGI
[6] = tested on: MDA-MB-157; experiment: In vivo antitumor activity against human MDA-MB-157 cells xenograft model assessed as tumor growth inhibition at 7.5 mg/kg, po qd for 10 days on - 2 days off - 5 days on; format: functional; conditions: read-out: TGI
[7] = tested on: MDA-MB-157; experiment: In vivo antitumor activity against human MDA-MB-157 cells xenograft model assessed as tumor growth inhibition at 15 mg/kg, po qd for 10 days on - 2 days off - 5 days on; format: functional; conditions: read-out: TGI
[8] = tested on: MDA-MB-157; experiment: In vivo antitumor activity against human MDA-MB-157 cells xenograft model assessed as tumor growth inhibition at 30 mg/kg, po qd for 10 days on - 2 days off - 5 days on; format: functional; conditions: read-out: TGI
[9] = tested on: TALL-1; experiment: In vivo antitumor activity against human TALL-1 cells xenograft model assessed as tumor growth inhibition treated po qd for 10 days on - 2 days off - 5 days on; format: functional, organism-based

Work on `CN1C(=O)[C@@H](NC(=O)[C@H](CCC(F)(F)F)[C@@H](C(N)=O)c2cccc(C(F)(F)F)c2)N=C(c2ccccc2)c2ccccc21` yielded a pIC50 [1] of 7.89, a remaining at 10 min, 0.5 µM [2] of 92% and a remaining at 10 min, 0.5 µM [3] of 59%.
Work on `NC(=O)[C@@H](c1cocn1)[C@@H](CCC(F)(F)F)C(=O)N[C@H]1N=C(c2ccccc2)c2ccccc2NC1=O` yielded a remaining at 10 min, 0.5 µM [2] of 86% and a remaining at 10 min, 0.5 µM [3] of 99%.
`Cc1nc([C@H](C(N)=O)[C@@H](CCC(F)(F)F)C(=O)N[C@H]2N=C(c3ccccc3)c3ccccc3N(C)C2=O)no1` showed a remaining at 10 min, 0.5 µM [2] of 100% and a remaining at 10 min, 0.5 µM [3] of 24%.
With `NC(=O)[C@@H](c1cnoc1)[C@@H](CCC(F)(F)F)C(=O)N[C@H]1N=C(c2ccccc2)c2ccccc2NC1=O` the remaining at 10 min, 0.5 µM [2] was 96% and the remaining at 10 min, 0.5 µM [3] was 100%.
Compound `CN1C(=O)[C@@H](NC(=O)[C@H](CCC(F)(F)F)[C@@H](C(N)=O)c2ccccc2)N=C(c2ccccc2)c2ccccc21` has a pIC50 [1] of 8.40, a remaining at 10 min, 0.5 µM [2] of 95% and a remaining at 10 min, 0.5 µM [3] of 74%. The inhibition in vivo at 6 mg/kg [4] was 71%, the inhibition in vivo at 24 mg/kg [5] was 102% and the inhibition in vivo at 7.5 mg/kg [6] was 63%. The inhibition in vivo at 15 mg/kg [7] was 76%, the inhibition in vivo at 30 mg/kg [8] was 99% and the inhibition [9] was “Dose-dependent effect”.
With `CCC[C@H](C(N)=O)[C@@H](CC(F)(F)F)C(=O)N[C@H]1N=C(c2ccccc2)c2ccccc2N(C)C1=O` the pIC50 [1] was 6.80, the remaining at 10 min, 0.5 µM [2] was 45% and the remaining at 10 min, 0.5 µM [3] was 51%.
For `CN1C(=O)[C@@H](NC(=O)[C@H](CCC(F)(F)F)[C@@H](C(N)=O)c2ccc(F)cc2)N=C(c2ccccc2)c2ccccc21`, the pIC50 [1] was 8.30, the remaining at 10 min, 0.5 µM [2] was 95% and the remaining at 10 min, 0.5 µM [3] was 65%.
Work on `Cc1cccc([C@H](C(N)=O)[C@@H](CCC(F)(F)F)C(=O)N[C@H]2N=C(c3ccccc3)c3ccccc3N(C)C2=O)c1` yielded a pIC50 [1] of 7.82, a remaining at 10 min, 0.5 µM [2] of 23% and a remaining at 10 min, 0.5 µM [3] of 7%.
`CN1C(=O)[C@@H](NC(=O)[C@H](CCC(F)(F)F)[C@@H](C(N)=O)c2ccc(F)c(F)c2)N=C(c2ccccc2)c2ccccc21` showed a pIC50 [1] of 8.40, a remaining at 10 min, 0.5 µM [2] of 94% and a remaining at 10 min, 0.5 µM [3] of 29%.
For `Cc1cc([C@H](C(N)=O)[C@@H](CCC(F)(F)F)C(=O)N[C@H]2N=C(c3ccccc3)c3ccccc3N(C)C2=O)no1`, the remaining at 10 min, 0.5 µM [2] was 94% and the remaining at 10 min, 0.5 µM [3] was 10%.
Compound `CN1C(=O)[C@@H](NC(=O)[C@H](CCC(F)(F)F)[C@@H](C(N)=O)c2cccc(OC(F)(F)F)c2)N=C(c2ccccc2)c2ccccc21` has a pIC50 [1] of 7.59, a remaining at 10 min, 0.5 µM [2] of 100% and a remaining at 10 min, 0.5 µM [3] of 82%.
For `CN1C(=O)[C@@H](NC(=O)[C@H](CCC(F)(F)F)[C@@H](C(N)=O)c2cc(F)cc(F)c2)N=C(c2ccccc2)c2ccccc21`, the pIC50 [1] was 8.40, the remaining at 10 min, 0.5 µM [2] was 94% and the remaining at 10 min, 0.5 µM [3] was 21%.
`Cc1nocc1[C@H](C(N)=O)[C@@H](CCC(F)(F)F)C(=O)N[C@H]1N=C(c2ccccc2)c2ccccc2N(C)C1=O` gave a remaining at 10 min, 0.5 µM [2] of 78% and a remaining at 10 min, 0.5 µM [3] of 23%.
Compound `CCC(CC)[C@H](C(N)=O)[C@@H](CCC(F)(F)F)C(=O)N[C@H]1N=C(c2ccccc2)c2ccccc2N(C)C1=O` has a remaining at 10 min, 0.5 µM [2] of 5% and a remaining at 10 min, 0.5 µM [3] of 7%.
Compound `NC(=O)[C@@H](c1ncon1)[C@@H](CCC(F)(F)F)C(=O)N[C@H]1N=C(c2ccccc2)c2ccccc2NC1=O` has a remaining at 10 min, 0.5 µM [2] of 84% and a remaining at 10 min, 0.5 µM [3] of 83%.
Work on `COc1ccc([C@H](C(N)=O)[C@@H](CCC(F)(F)F)C(=O)N[C@H]2N=C(c3ccccc3)c3ccccc3N(C)C2=O)cc1` yielded a pIC50 [1] of 8.40, a remaining at 10 min, 0.5 µM [2] of 62% and a remaining at 10 min, 0.5 µM [3] of 5%.
Compound `CN1C(=O)[C@@H](NC(=O)[C@H](CCC(F)(F)F)[C@@H](C(N)=O)c2ccc(F)cc2F)N=C(c2ccccc2)c2ccccc21` has a pIC50 [1] of 8.40, a remaining at 10 min, 0.5 µM [2] of 100% and a remaining at 10 min, 0.5 µM [3] of 31%.
For `CCC(CC)[C@H](C(N)=O)[C@@H](CC(C)(C)C)C(=O)N[C@H]1N=C(c2ccccc2)c2ccccc2N(C)C1=O`, the remaining at 10 min, 0.5 µM [2] was 1% and the remaining at 10 min, 0.5 µM [3] was 6%.
For `CN1C(=O)[C@@H](NC(=O)[C@H](CCC(F)(F)F)[C@@H](C(N)=O)c2cccc(S(C)(=O)=O)c2)N=C(c2ccccc2)c2ccccc21`, the remaining at 10 min, 0.5 µM [2] was 93% and the remaining at 10 min, 0.5 µM [3] was 62%.
For `CCC(CC)[C@H](C(N)=O)[C@@H](CC(C)C)C(=O)N[C@H]1N=C(c2ccccc2)c2ccccc2N(C)C1=O`, the pIC50 [1] was 8.52, the remaining at 10 min, 0.5 µM [2] was 2% and the remaining at 10 min, 0.5 µM [3] was 2%.
